Assay results taken from PMC6109843, “Novel Quinazolinone Inhibitors of ALK2 Flip between Alternate Binding Modes: Structure–Activity Relationship, Structural Characterization, Kinase Profiling, and Cellular Proof of Concept” (Journal of Medicinal Chemistry, 2018).

Experiments:
Assay in all cases: DiscoverX scanEDGE kinase panel
Format in all cases: binding
Conditions in all cases: Cmpd Conc 1000 nM, read-out: % Ctrl
ABL1(T315I)EP = biological target: T1, ABL1(T315I)EP (Homo sapiens, UniProt P00519, T315I)
T1 construct: purchased DiscoverX (DiscoveRx) KINOMEscan scanEDGE / KdELECT
Source text: (§1) We hypothesized that inhibitors of the normal and flipped modes would display distinct selectivity profiles.
(§2) 1. 16 and 21 kinome selectivity data
(§3) (P – phosphorylated; nP – nonphosphorylated; % Ctrl values show the % of DNAEtagged
(§4) kinase which was not displaced from a solid supported ligand by a test compound relative to
(§5) untreated control, quantified by qPCR).
(§6) Please note: ALKs 1, 2, 3, 4, 5 and 6 are listed by their gene symbols: ACVRL1 (ALK1), ACVR1
(§7) (ALK2), BMPR1A (ALK3), ACVR1B (ALK4), TGFBR1 (ALK5) and BMPR1B (ALK6)
(§8) Cmpd DiscoverX Gene Symbol Entrez Gene Symbol % Ctrl Cmpd Conc (nM)

ABL1EP = biological target: T2, ABL1EP (Homo sapiens, UniProt P00519)
T2 construct: purchased DiscoverX (DiscoveRx) KINOMEscan scanEDGE / KdELECT
Source text: as §1, §2, §3, §4, §5, §6, §7, §8

ABL2 = biological target: T3, ABL2 (Homo sapiens, UniProt P42684)
T3 construct: purchased DiscoverX (DiscoveRx) KINOMEscan scanEDGE / KdELECT
T3 sequence (P42684 whole entry): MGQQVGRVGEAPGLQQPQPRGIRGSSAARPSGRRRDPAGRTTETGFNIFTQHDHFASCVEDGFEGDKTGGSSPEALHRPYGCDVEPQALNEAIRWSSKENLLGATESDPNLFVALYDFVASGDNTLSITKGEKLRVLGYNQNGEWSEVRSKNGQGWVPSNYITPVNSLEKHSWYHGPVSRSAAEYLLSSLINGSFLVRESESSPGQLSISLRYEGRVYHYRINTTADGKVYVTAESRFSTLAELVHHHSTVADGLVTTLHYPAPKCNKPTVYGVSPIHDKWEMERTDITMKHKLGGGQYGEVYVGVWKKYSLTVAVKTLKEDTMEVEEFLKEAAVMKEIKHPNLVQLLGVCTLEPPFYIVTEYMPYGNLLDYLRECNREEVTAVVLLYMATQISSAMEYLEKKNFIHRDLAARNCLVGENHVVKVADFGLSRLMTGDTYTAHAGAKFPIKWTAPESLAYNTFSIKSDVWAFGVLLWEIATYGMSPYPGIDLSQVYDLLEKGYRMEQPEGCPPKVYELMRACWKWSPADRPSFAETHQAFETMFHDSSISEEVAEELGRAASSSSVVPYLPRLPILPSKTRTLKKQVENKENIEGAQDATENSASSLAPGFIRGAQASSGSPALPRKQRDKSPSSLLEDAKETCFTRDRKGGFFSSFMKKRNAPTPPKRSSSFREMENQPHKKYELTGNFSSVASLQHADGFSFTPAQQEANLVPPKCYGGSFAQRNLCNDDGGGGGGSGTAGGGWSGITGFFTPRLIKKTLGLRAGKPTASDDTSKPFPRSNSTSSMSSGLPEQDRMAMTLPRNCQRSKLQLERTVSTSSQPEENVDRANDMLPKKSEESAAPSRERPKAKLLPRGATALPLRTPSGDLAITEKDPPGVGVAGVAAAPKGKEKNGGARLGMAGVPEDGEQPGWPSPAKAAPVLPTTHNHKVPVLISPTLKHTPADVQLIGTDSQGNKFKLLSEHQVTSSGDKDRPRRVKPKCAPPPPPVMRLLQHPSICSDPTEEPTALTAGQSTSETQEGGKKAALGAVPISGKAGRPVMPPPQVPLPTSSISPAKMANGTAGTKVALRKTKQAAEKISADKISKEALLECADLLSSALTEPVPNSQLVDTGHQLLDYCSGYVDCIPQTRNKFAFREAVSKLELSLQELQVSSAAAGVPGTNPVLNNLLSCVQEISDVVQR
Source text: as §1, §2, §3, §4, §5, §6, §7, §8

ACVR1B (ALK4) = biological target: T4, ACVR1B (ALK4) (Homo sapiens, UniProt P36896)
T4 construct: purchased DiscoverX (DiscoveRx) KINOMEscan scanEDGE / KdELECT
Source text: as §1, §2, §3, §4, §5, §6, §7, §8

ACVR2A = biological target: T5, ACVR2A (Homo sapiens, UniProt P27037)
T5 construct: purchased DiscoverX (DiscoveRx) KINOMEscan scanEDGE / KdELECT
Source text: as §1, §2, §3, §4, §5, §6, §7, §8

ACVR2B = biological target: T6, ACVR2B (Homo sapiens, UniProt Q13705)
T6 construct: purchased DiscoverX (DiscoveRx) KINOMEscan scanEDGE / KdELECT
Source text: as §1, §2, §3, §4, §5, §6, §7, §8

ADCK3 = biological target: T7, ADCK3 (Homo sapiens, UniProt Q8NI60)
T7 construct: purchased DiscoverX (DiscoveRx) KINOMEscan scanEDGE / KdELECT
T7 sequence (Q8NI60 163-647): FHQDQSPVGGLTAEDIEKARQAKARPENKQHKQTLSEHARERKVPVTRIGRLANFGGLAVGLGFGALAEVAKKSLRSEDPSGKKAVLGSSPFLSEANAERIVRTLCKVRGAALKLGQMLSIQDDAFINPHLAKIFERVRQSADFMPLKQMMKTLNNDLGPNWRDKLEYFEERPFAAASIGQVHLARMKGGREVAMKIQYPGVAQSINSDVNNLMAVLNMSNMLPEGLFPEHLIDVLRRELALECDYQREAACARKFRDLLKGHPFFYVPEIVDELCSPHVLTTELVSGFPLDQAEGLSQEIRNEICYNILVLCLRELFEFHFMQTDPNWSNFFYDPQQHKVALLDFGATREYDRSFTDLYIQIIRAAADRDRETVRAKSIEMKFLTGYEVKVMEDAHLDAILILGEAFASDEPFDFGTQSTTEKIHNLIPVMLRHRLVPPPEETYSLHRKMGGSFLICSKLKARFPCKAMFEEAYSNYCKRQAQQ
Source text: as §1, §2, §3, §4, §5, §6, §7, §8

ALK = biological target: T8, ALK (Homo sapiens, UniProt Q9UM73)
T8 construct: purchased DiscoverX (DiscoveRx) KINOMEscan scanEDGE / KdELECT
Source text: as §1, §2, §3, §4, §5, §6, §7, §8

AURKA = biological target: T9, AURKA (Homo sapiens, UniProt O14965)
T9 construct: purchased DiscoverX (DiscoveRx) KINOMEscan scanEDGE / KdELECT
Source text: as §1, §2, §3, §4, §5, §6, §7, §8

BMPR1B (ALK6) = biological target: T10, BMPR1B (ALK6) (Homo sapiens, UniProt O00238)
T10 construct: purchased DiscoverX (DiscoveRx) KINOMEscan scanEDGE / KdELECT
Source text: as §1, §2, §3, §4, §5, §6, §7, §8

BRAF = biological target: T11, BRAF (Homo sapiens, UniProt P15056)
T11 construct: purchased DiscoverX (DiscoveRx) KINOMEscan scanEDGE / KdELECT
Source text: as §1, §2, §3, §4, §5, §6, §7, §8

BRAF(V600E) = biological target: T12, BRAF(V600E) (Homo sapiens, UniProt P15056, V600E)
T12 construct: purchased DiscoverX (DiscoveRx) KINOMEscan scanEDGE / KdELECT
Source text: as §1, §2, §3, §4, §5, §6, §7, §8

BTK = biological target: T13, BTK (Homo sapiens, UniProt Q06187)
T13 construct: purchased DiscoverX (DiscoveRx) KINOMEscan scanEDGE / KdELECT
Source text: as §1, §2, §3, §4, §5, §6, §7, §8

CDK3 = biological target: T14, CDK3 (Homo sapiens, UniProt Q00526)
T14 construct: purchased DiscoverX (DiscoveRx) KINOMEscan scanEDGE / KdELECT
Source text: as §1, §2, §3, §4, §5, §6, §7, §8

ERBB2 = biological target: T15, ERBB2 (Homo sapiens, UniProt P04626)
T15 construct: purchased DiscoverX (DiscoveRx) KINOMEscan scanEDGE / KdELECT
T15 sequence (P04626 23-1255): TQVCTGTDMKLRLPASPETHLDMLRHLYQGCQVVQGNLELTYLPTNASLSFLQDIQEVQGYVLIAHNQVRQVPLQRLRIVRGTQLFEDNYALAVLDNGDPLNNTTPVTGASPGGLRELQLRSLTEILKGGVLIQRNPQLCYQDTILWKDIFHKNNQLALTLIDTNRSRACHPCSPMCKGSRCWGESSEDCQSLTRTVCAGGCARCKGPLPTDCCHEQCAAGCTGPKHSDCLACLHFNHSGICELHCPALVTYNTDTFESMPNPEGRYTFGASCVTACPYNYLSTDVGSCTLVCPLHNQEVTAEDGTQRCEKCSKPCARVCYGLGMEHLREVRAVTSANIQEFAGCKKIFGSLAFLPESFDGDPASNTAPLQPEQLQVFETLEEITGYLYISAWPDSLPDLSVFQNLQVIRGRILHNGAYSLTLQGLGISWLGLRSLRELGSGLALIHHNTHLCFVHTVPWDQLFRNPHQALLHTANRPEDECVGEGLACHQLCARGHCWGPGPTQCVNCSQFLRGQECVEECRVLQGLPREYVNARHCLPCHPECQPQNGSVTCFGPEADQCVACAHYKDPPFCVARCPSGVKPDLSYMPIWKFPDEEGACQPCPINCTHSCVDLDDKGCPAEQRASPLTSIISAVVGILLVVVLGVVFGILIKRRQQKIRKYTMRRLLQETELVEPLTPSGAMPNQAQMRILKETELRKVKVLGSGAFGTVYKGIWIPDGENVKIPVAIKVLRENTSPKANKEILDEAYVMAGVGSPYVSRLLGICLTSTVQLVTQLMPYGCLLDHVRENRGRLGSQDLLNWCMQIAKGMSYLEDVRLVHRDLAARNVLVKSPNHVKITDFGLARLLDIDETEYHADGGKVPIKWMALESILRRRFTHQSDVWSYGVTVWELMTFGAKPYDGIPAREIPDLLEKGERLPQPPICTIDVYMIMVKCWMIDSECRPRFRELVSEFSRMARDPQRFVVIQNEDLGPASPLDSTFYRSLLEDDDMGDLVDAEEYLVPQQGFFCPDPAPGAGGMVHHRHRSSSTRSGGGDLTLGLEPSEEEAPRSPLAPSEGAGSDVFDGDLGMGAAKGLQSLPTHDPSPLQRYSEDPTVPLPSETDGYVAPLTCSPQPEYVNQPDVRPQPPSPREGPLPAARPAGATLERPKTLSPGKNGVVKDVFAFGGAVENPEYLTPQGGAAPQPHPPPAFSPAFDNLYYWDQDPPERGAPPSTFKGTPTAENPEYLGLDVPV
Source text: as §1, §2, §3, §4, §5, §6, §7, §8

FAK = biological target: T16, FAK (Homo sapiens, UniProt Q05397)
T16 construct: purchased DiscoverX (DiscoveRx) KINOMEscan scanEDGE / KdELECT
Source text: as §1, §2, §3, §4, §5, §6, §7, §8

FGFR2 = biological target: T17, FGFR2 (Homo sapiens, UniProt P21802)
T17 construct: purchased DiscoverX (DiscoveRx) KINOMEscan scanEDGE / KdELECT
Source text: as §1, §2, §3, §4, §5, §6, §7, §8

JAK3(JH1domain) = biological target: T18, JAK3(JH1domain) (Homo sapiens, UniProt P52333)
T18 construct: JAK3(JH1domain); purchased DiscoverX (DiscoveRx) KINOMEscan scanEDGE / KdELECT
T18 sequence (P52333 813-1124 limits assumed): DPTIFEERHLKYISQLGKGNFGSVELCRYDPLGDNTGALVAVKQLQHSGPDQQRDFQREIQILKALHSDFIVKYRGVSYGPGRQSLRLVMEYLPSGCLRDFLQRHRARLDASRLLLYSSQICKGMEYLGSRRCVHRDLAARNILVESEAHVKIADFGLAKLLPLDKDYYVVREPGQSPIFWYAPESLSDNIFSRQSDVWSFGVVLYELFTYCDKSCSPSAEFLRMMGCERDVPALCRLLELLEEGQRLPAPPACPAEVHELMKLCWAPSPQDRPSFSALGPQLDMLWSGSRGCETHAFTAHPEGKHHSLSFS
Source text: as §1, §2, §3, §4, §5, §6, §7, §8

JNK2 = biological target: T19, JNK2 (Homo sapiens, UniProt P45984)
T19 construct: purchased DiscoverX (DiscoveRx) KINOMEscan scanEDGE / KdELECT
T19 sequence (P45984 whole entry): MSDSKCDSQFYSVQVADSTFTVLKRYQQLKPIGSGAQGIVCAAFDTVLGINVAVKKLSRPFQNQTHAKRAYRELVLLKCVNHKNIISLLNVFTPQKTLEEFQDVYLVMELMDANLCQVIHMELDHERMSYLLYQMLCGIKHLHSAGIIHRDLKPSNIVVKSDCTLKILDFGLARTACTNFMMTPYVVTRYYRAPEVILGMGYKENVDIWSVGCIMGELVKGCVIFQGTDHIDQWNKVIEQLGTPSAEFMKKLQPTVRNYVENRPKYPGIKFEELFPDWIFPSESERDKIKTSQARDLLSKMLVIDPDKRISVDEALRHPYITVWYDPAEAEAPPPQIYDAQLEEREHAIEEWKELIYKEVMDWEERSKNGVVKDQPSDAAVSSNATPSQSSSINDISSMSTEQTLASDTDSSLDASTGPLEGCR
Source text: as §1, §2, §3, §4, §5, §6, §7, §8

LKB1 = biological target: T20, LKB1 (Homo sapiens, UniProt Q15831)
T20 construct: purchased DiscoverX (DiscoveRx) KINOMEscan scanEDGE / KdELECT
Source text: as §1, §2, §3, §4, §5, §6, §7, §8

MAPKAPK2 = biological target: T21, MAPKAPK2 (Homo sapiens, UniProt P49137)
T21 construct: purchased DiscoverX (DiscoveRx) KINOMEscan scanEDGE / KdELECT
Source text: as §1, §2, §3, §4, §5, §6, §7, §8

MKNK1 = biological target: T22, MKNK1 (Homo sapiens, UniProt Q9BUB5)
T22 construct: purchased DiscoverX (DiscoveRx) KINOMEscan scanEDGE / KdELECT
Source text: as §1, §2, §3, §4, §5, §6, §7, §8

MKNK2 = biological target: T23, MKNK2 (Homo sapiens, UniProt Q9HBH9)
T23 construct: purchased DiscoverX (DiscoveRx) KINOMEscan scanEDGE / KdELECT
Source text: as §1, §2, §3, §4, §5, §6, §7, §8

NEK6 = biological target: T24, NEK6 (Homo sapiens, UniProt Q9HC98)
T24 construct: purchased DiscoverX (DiscoveRx) KINOMEscan scanEDGE / KdELECT
Source text: as §1, §2, §3, §4, §5, §6, §7, §8

PAK4 = biological target: T25, PAK4 (Homo sapiens, UniProt O96013)
T25 construct: purchased DiscoverX (DiscoveRx) KINOMEscan scanEDGE / KdELECT
Source text: as §1, §2, §3, §4, §5, §6, §7, §8

PDGFRA = biological target: T26, PDGFRA (Homo sapiens, UniProt P16234)
T26 construct: purchased DiscoverX (DiscoveRx) KINOMEscan scanEDGE / KdELECT
T26 sequence (P16234 24-1089): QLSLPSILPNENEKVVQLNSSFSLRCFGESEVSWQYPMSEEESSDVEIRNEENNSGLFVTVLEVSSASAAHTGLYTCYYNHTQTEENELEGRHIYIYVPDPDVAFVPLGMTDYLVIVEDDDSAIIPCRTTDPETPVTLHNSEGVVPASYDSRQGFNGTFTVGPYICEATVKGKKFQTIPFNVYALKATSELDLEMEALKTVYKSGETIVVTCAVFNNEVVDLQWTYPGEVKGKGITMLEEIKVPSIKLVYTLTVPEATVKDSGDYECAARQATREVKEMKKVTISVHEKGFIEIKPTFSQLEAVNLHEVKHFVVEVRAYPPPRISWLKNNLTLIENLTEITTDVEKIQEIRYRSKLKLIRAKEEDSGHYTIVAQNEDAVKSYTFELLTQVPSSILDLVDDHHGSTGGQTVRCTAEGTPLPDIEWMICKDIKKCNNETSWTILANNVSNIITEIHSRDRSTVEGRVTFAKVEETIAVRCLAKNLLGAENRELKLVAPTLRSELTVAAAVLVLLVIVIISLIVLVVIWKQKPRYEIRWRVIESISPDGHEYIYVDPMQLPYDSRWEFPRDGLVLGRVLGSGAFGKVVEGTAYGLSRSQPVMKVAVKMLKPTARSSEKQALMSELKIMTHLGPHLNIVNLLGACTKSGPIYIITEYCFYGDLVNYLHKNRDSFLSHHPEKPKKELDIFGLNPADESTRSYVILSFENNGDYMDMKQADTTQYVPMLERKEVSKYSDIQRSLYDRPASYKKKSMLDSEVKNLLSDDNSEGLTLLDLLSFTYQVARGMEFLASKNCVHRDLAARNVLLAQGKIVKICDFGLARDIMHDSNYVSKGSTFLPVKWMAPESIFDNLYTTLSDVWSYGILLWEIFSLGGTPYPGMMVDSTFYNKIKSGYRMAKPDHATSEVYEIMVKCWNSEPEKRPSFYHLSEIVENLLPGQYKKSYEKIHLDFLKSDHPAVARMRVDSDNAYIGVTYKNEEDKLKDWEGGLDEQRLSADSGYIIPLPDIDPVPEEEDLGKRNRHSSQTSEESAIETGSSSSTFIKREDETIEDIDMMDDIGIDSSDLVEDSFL
Source text: as §1, §2, §3, §4, §5, §6, §7, §8

PIM2 = biological target: T27, PIM2 (Homo sapiens, UniProt Q9P1W9)
T27 construct: purchased DiscoverX (DiscoveRx) KINOMEscan scanEDGE / KdELECT
Source text: as §1, §2, §3, §4, §5, §6, §7, §8

PIM3 = biological target: T28, PIM3 (Homo sapiens, UniProt Q86V86)
T28 construct: purchased DiscoverX (DiscoveRx) KINOMEscan scanEDGE / KdELECT
Source text: as §1, §2, §3, §4, §5, §6, §7, §8

PKACEalpha = biological target: T29, PKACEalpha (Homo sapiens, UniProt P17612)
T29 construct: purchased DiscoverX (DiscoveRx) KINOMEscan scanEDGE / KdELECT
Source text: as §1, §2, §3, §4, §5, §6, §7, §8

PLK3 = biological target: T30, PLK3 (Homo sapiens, UniProt Q9H4B4)
T30 construct: purchased DiscoverX (DiscoveRx) KINOMEscan scanEDGE / KdELECT
Source text: as §1, §2, §3, §4, §5, §6, §7, §8

RAF1 = biological target: T31, RAF1 (Homo sapiens, UniProt P04049)
T31 construct: purchased DiscoverX
Source text: as §1, §2, §3, §4, §5, §6, §7, §8

ROCK2 = biological target: T32, ROCK2 (Homo sapiens, UniProt O75116)
T32 construct: purchased DiscoverX (DiscoveRx) KINOMEscan scanEDGE / KdELECT
Source text: as §1, §2, §3, §4, §5, §6, §7, §8

SRPK3 = biological target: T33, SRPK3 (Homo sapiens, UniProt Q9UPE1)
T33 construct: purchased DiscoverX (DiscoveRx) KINOMEscan scanEDGE / KdELECT
Source text: as §1, §2, §3, §4, §5, §6, §7, §8

TRKA = biological target: T34, TRKA (Homo sapiens, UniProt P04629)
T34 construct: purchased DiscoverX (DiscoveRx) KINOMEscan scanEDGE / KdELECT
Source text: as §1, §2, §3, §4, §5, §6, §7, §8

ULK2 = biological target: T35, ULK2 (Homo sapiens, UniProt Q8IYT8)
T35 construct: purchased DiscoverX (DiscoveRx) KINOMEscan scanEDGE / KdELECT
Source text: as §1, §2, §3, §4, §5, §6, §7, §8

VEGFR2 = biological target: T36, VEGFR2 (Homo sapiens, UniProt P35968)
T36 construct: purchased DiscoverX (DiscoveRx) KINOMEscan scanEDGE / KdELECT
Source text: as §1, §2, §3, §4, §5, §6, §7, §8

YANK3 = biological target: T37, YANK3 (Homo sapiens, UniProt Q86UX6)
T37 construct: purchased DiscoverX (DiscoveRx) KINOMEscan scanEDGE / KdELECT
Source text: as §1, §2, §3, §4, §5, §6, §7, §8

p38Ealpha = biological target: T38, p38Ealpha (Homo sapiens, UniProt Q16539)
T38 construct: purchased DiscoverX (DiscoveRx) KINOMEscan scanEDGE / KdELECT
Source text: as §1, §2, §3, §4, §5, §6, §7, §8

p38Ebeta = biological target: T39, p38Ebeta (Homo sapiens, UniProt Q15759)
T39 construct: purchased DiscoverX (DiscoveRx) KINOMEscan scanEDGE / KdELECT
T39 sequence (Q15759 whole entry): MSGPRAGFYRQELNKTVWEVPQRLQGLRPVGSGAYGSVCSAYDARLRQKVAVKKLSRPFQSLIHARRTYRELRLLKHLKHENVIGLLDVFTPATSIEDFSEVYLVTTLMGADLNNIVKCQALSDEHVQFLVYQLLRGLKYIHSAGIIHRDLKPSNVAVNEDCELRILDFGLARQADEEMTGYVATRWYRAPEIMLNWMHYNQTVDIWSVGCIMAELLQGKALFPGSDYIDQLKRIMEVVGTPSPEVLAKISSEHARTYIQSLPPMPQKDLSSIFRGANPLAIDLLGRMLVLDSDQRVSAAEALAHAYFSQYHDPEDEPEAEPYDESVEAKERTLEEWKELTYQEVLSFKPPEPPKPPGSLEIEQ
Source text: as §1, §2, §3, §4, §5, §6, §7, §8

Cc1nc2ccc(-c3ccnc4ccccc34)c(C)c2c(=O)[nH]1 [compound 21, 2,5-Dimethyl-6-(quinolin-4-yl)quinazolin-4(3H)-one]
remaining binding at 1 µM (ABL1(T315I)EP): 97% | remaining binding at 1 µM (ABL1EP): 97% | remaining binding at 1 µM (ABL2): 93% | remaining binding at 1 µM (ACVR1B (ALK4)): 18% | remaining binding at 1 µM (ACVR2A): 83% | remaining binding at 1 µM (ACVR2B): 67% | remaining binding at 1 µM (ADCK3): 97% | remaining binding at 1 µM (ALK): 100% | remaining binding at 1 µM (AURKA): 100% | remaining binding at 1 µM (BMPR1B (ALK6)): 1.6% | remaining binding at 1 µM (BRAF): 17% | remaining binding at 1 µM (BRAF(V600E)): 11% | remaining binding at 1 µM (BTK): 100% | remaining binding at 1 µM (CDK3): 94% | remaining binding at 1 µM (ERBB2): 100% | remaining binding at 1 µM (FAK): 98% | remaining binding at 1 µM (FGFR2): 100% | remaining binding at 1 µM (JAK3(JH1domain)): 94% | remaining binding at 1 µM (JNK2): 91% | remaining binding at 1 µM (LKB1): 100% | remaining binding at 1 µM (MAPKAPK2): 100% | remaining binding at 1 µM (MKNK1): 93% | remaining binding at 1 µM (MKNK2): 92% | remaining binding at 1 µM (NEK6): 100% | remaining binding at 1 µM (PAK4): 62% | remaining binding at 1 µM (PDGFRA): 93% | remaining binding at 1 µM (PIM2): 96% | remaining binding at 1 µM (PIM3): 98% | remaining binding at 1 µM (PKACEalpha): 100% | remaining binding at 1 µM (PLK3): 96% | remaining binding at 1 µM (RAF1): 25% | remaining binding at 1 µM (ROCK2): 100% | remaining binding at 1 µM (SRPK3): 96% | remaining binding at 1 µM (TRKA): 93% | remaining binding at 1 µM (ULK2): 77% | remaining binding at 1 µM (VEGFR2): 99% | remaining binding at 1 µM (YANK3): 95% | remaining binding at 1 µM (p38Ealpha): 90% | remaining binding at 1 µM (p38Ebeta): 99%
